Source: patent publication US10329276B2, “Salt and crystalline forms thereof of a drug” (AbbVie Inc., priority 2004, dated 2019)
≈ marks a conversion by molar mass, not a printed value.

Columns and labels:
Format in all cases: physicochemical
[1] = Solubility of the trihydrate salt in different base solutions at 25° C.
Description: The solubility of D-glucitol, 1-deoxy-1-(methylamino)-, 1-(6-amino-3,5-difluoropyridin-2-yl)-8-chloro-6-fluoro-1,4-dihydro-7-(3-hydroxyazetidin-1-yl)-4-oxo-3-quinolinecarboxylate trihydrate (salt) in different base solutions at 25° C. is shown in TABLE 3.

[2] = Solubility in different base solutions at 25° C. (free acid); details: for solubility: aqueous buffer
Description: Solubilities of 1-(6-amino-3,5-difluoropyridin-2-yl)-8-chloro-6-fluoro-1,4-dihydro-7-(3-hydroxyazetidin-1-yl)-4-oxo-3-quinolinecarboxylic acid in different base solutions at 25° C. are shown in TABLE 2.

[3] = Solubility in different buffered solutions at 25° C.
Description: Solubilities of 1-(6-amino-3,5-difluoropyridin-2-yl)-8-chloro-6-fluoro-1,4-dihydro-7-(3-hydroxyazetidin-1-yl)-4-oxo-3-quinolinecarboxylic acid in different buffered solutions at 25° C. are shown in TABLE 1.

[4] = 0.01M meglumine, final pH 9.00, 25° C.
[5] = 0.1M meglumine, final pH 9.83, 25° C.
[6] = 1M meglumine, final pH 10.85, 25° C.

CNC[C@H](O)[C@@H](O)[C@H](O)[C@H](O)CO.Nc1nc(-n2cc(C(=O)O)c(=O)c3cc(F)c(N4CC(O)C4)c(Cl)c32)c(F)cc1F.O.O.O [D-glucitol, 1-deoxy-1-(methylamino)-, 1-(6-amino-3,5-difluoropyridin-2-yl)-8-chloro-6-fluoro-1,4-dihydro-7-(3-hydroxyazetidin-1-yl)-4-oxo-3-quinolinecarboxylate trihydrate (salt)]
Ksp (M^2) [1, 4]: 4.71 × 10^−3 M^2 | solubility [1, 4]: 32400 µg/mL | Ksp (M^2) [1, 5]: 4.16 × 10^−3 M^2 | solubility [1, 5]: 32200 µg/mL | Ksp (M^2) [1, 6]: 3.34 × 10^−3 M^2 | solubility [1, 6]: 30800 µg/mL | Ksp (M^2) ([1]; water, final pH 8.78, 25° C.): 5.00 × 10^−3 M^2 | solubility ([1]; water, final pH 8.78, 25° C.): 33900 µg/mL

Nc1nc(-n2cc(C(=O)O)c(=O)c3cc(F)c(N4CC(O)C4)c(Cl)c32)c(F)cc1F [1-(6-amino-3,5-difluoropyridin-2-yl)-8-chloro-6-fluoro-1,4-dihydro-7-(3-hydroxyazetidin-1-yl)-4-oxo-3-quinolinecarboxylic acid]
Ksp (M^2) ([2]; 0.5M KOH): 1.69 × 10^−2 M^2 | Swater ([2]; 0.5M KOH): 57.4 mg/mL | Ksp (M^2) ([2]; 1M L-arginine): 4.81 × 10^−4 M^2 | Swater ([2]; 1M L-arginine): 9.67 mg/mL | Ksp (M^2) ([2]; 1M NaOH): 1.66 × 10^−2 M^2 | Swater ([2]; 1M NaOH): 56.8 mg/mL | Ksp (M^2) ([2]; 1.0M TRIS): 1.619 × 10^−4 M^2 | Swater ([2]; 1.0M TRIS): 4.8 mg/mL | Ksp (M^2) ([2]; 1M ethanolamine): 2.04 × 10^−3 M^2 | Swater ([2]; 1M ethanolamine): 19.9 mg/mL | Ksp (M^2) ([2]; 1M meglumin): 2.81 × 10^−3 M^2 | Swater ([2]; 1M meglumin): 23.6 mg/mL | solubility ([2]; 0.5M KOH): 24400 µg/mL (≈ 55.4 mM) | solubility ([2]; 1M L-arginine): 11200 µg/mL (≈ 25.4 mM) | solubility ([2]; 1M NaOH): 8330 µg/mL (≈ 18.9 mM) | solubility ([2]; 1.0M TRIS): 5760 µg/mL (≈ 13.1 mM) | solubility ([2]; 1M ethanolamine): 24900 µg/mL (≈ 56.5 mM) | solubility ([2]; 1M meglumin): 32100 µg/mL (≈ 72.8 mM) | solubility ([3]; 0.1 HCl (printed 0.1 HC1), simulated gastric fluid, 0.1 HC1, final pH 0.8, 25° C.): 3.26 µg/mL (≈ 0.0074 mM) | solubility ([3]; aqueous buffer, 0.1M NaOH, final pH 8.4, 25° C.): 3400 µg/mL (≈ 7.71 mM) | solubility ([3]; aqueous buffer, Phosphate Buffer 8.0, final pH 7.8, 25° C.): 651 µg/mL (≈ 1.48 mM) | solubility ([3]; aqueous buffer, citrate buffer 4.0, final pH 4.2, 25° C.): 3.44 µg/mL (≈ 0.0078 mM) | solubility ([3]; aqueous buffer, citrate buffer 5.0, final pH 5.1, 25° C.): 3.33 µg/mL (≈ 0.00756 mM) | solubility ([3]; aqueous buffer, glycine buffer 9.0, final pH 8.2, 25° C.): 2490 µg/mL (≈ 5.65 mM) | solubility ([3]; aqueous buffer, phosphate buffer 6.8, final pH 6.8, 25° C.): 66.8 µg/mL (≈ 0.152 mM) | solubility ([3]; aqueous buffer, phosphate buffer 7.4, final pH 7.4, 25° C.): 283 µg/mL (≈ 0.642 mM) | solubility ([3]; organic solvent or mixture, ethanol, 25° C.): 867 µg/mL (≈ 1.97 mM) | solubility ([3]; saline or isotonic, saline, final pH 5.8-5.9, 25° C.): 13 µg/mL (≈ 0.0295 mM)
